From patent US9067974B2, “Polymyxin derivatives and uses thereof” (priority 2006, dated 2015)

Tests used:
E. coli IH3080 = experiment: Sensitization to rifampin: well diffusion growth inhibition on LB plates containing rifampin; assay type: cell-based, Escherichia coli; conditions: 4 μg of compound
Method: (§1) From an overnight-grown culture of IH3080 on LB agar, a suspension of approx. 10^8 cells/ml was prepared in 0.9% NaCl. Aliquots of this suspension were then pipetted on the agar plates and the plates were gently shaken to spread the suspension evenly on the entire surface of the plate. Thereafter, the unabsorbed part of the suspension was removed by using a Pasteur pipette. After the surface had dried, small wells (diameter, 2 mm) were drilled on the plates (five wells per plate) by using a sterile sharp-edged narrow metal tube, single-use pipette tip, and vacuum suction. […] Controls included 0.9% NaCl solution without the compound to be tested. The plates were then incubated for 18 h at 37° C. whereafter the diameters of growth inhibition zones around each well were measured; the diameter of the well itself was not reduced. Finally, the diameters were converted to surface areas of growth inhibition (in square mm).

A. baumannii ATCC 19606 = experiment: as above; assay type: cell-based, Acinetobacter baumannii; conditions: 4 μg of compound
E. coli IH3080 (K1:O18) = experiment: Well diffusion growth inhibition on LB agar plates (direct antibacterial activity); assay type: cell-based, Escherichia coli
Method: Peptides synthesized in Example 1, all carrying at least two (2) but not more than three (3) positive charges, were studied for their ability to inhibit the growth of E. coli. This was tested employing LB agar (LB Agar Lennox, Difco, BD, Sparks, Md., U.S.A) plates. The indicator organism E. coli IH3080 (K1:O18) was an encapsulated strain originally isolated from a neonate suffering from meningitis (Vaara et al. 1984) and obtained from National Public Health Institute, Helsinki, Finland.
as §1

[1] = test system: Pseudomonas aeruginosa ATCC 27853; experiment: as above; assay type: cell-based; conditions: Ps. aeruginosa ATCC 27853
Method: (§2) From an overnight-grown culture of IH3080 on LB agar, a suspension of approx. 10^8 cells/ml was prepared in 0.9% NaCl. Aliquots of this suspension were then pipetted on the agar plates and the plates were gently shaken to spread the suspension evenly on the entire surface of the plate. Thereafter, the unabsorbed part of the suspension was removed by using a Pasteur pipette. After the surface had dried, small wells (diameter, 2 mm) were drilled on the plates (five wells per plate) by using a sterile sharp-edged narrow metal tube, single-use pipette tip, and vacuum suction. Samples (4 μl and 10 μl) of the peptide solution in 0.9% NaCl (at concentrations of 1 μg/ml and 0.1 μg/ml) were then pipetted to the wells and the sample fluids were allowed to absorb. Controls included 0.9% NaCl solution without the compound to be tested. The plates were then incubated for 18 h at 37° C. whereafter the diameters of growth inhibition zones around each well were measured; the diameter of the well itself was not reduced. Finally, the diameters were converted to surface areas of growth inhibition (in square mm).
(§3) Direct antibacterial activity of twelve NAB compounds against Acinetobacter baumannii ATCC 19606 and Pseudomonas aeruginosa ATCC 27853 was tested by using the susceptibility determination method described in Example 2. Five compounds (NAB7062, NAB734, NAB737, NAB739, and NAB740) had notable activity against A. baumannii. […] The antibacterial activity of NAB739 and NAB740 were as strong as or even stronger than that of polymyxin B.

[2] = test system: Acinetobacter baumannii ATCC 19606; experiment: as above; assay type: cell-based; conditions: A. baumannii ATCC 19606
Method: as §2, §3

[3] = test system: Ps. aeruginosa ATCC 27853; experiment: Sensitization to rifampin: well diffusion growth inhibition on LB plates containing rifampin; assay type: cell-based, Pseudomonas aeruginosa; conditions: 4 μg of compound

| Substance | Antibacterial activity in the presence of rifampin (growth inhibition area around a well) (E. coli IH3080; rifampin 0 μg/ml) [square millimeters] | Antibacterial activity in the presence of rifampin (growth inhibition area around a well) (E. coli IH3080; rifampin 0.1 μg/ml) [square millimeters] | Antibacterial activity in the presence of rifampin (growth inhibition area around a well) (E. coli IH3080; rifampin 1.0 μg/ml) [square millimeters] | Antibacterial activity in the presence of rifampin (growth inhibition area around a well) (A. baumannii ATCC 19606; rifampin 0 μg/ml) [square millimeters] | Antibacterial activity in the presence of rifampin (growth inhibition area around a well) (A. baumannii ATCC 19606; rifampin 0.1 μg/ml) [square millimeters] | Antibacterial activity in the presence of rifampin (growth inhibition area around a well) (A. baumannii ATCC 19606; rifampin 0.3 μg/ml) [square millimeters] | Antibacterial activity (growth inhibition area around a well) (E. coli IH3080 (K1:O18); 4 μg of compound per well) [square millimeters] | Antibacterial activity (growth inhibition area around a well) (E. coli IH3080 (K1:O18); 10 μg of compound per well) [square millimeters] | Antibacterial activity (growth inhibition area around a well) ([1]; 4 μg per well) [square millimeters] | Antibacterial activity (growth inhibition area around a well) ([1]; 10 μg per well) [square millimeters] | Antibacterial activity (growth inhibition area around a well) ([2]; 4 μg per well) [square millimeters] | Antibacterial activity (growth inhibition area around a well) ([2]; 10 μg per well) [square millimeters] | Antibacterial activity in the presence of rifampin (growth inhibition area around a well) ([3]; rifampin 0 μg/ml) [square millimeters] | Antibacterial activity in the presence of rifampin (growth inhibition area around a well) ([3]; rifampin 0.1 μg/ml) [square millimeters] | Antibacterial activity in the presence of rifampin (growth inhibition area around a well) ([3]; rifampin 0.3 μg/ml) [square millimeters] |
| --- | --- | --- | --- | --- | --- | --- | --- | --- | --- | --- | --- | --- | --- | --- | --- |
| DA-Thr-DSer-cy[Dab-Dab-DPhe-Leu-Dab-Dab-Thr-] [NAB 740] | 95 | 95 | 95 | 133 | 154 | 154 | 95 | 133 | 64 | 133 | 133 | 201 | 64 | 64 | 64 |
| OA-Thr-Dab-cy[Dab-Dab-DPhe-Leu-Abu-Dab-Thr-] [NAB 716] | 13 | 133 | 165 | 0 | 0 | 64 | 13 | 64 | 0 | 0 | 0 | 0 | 0 | 0 | 0 |
| Polymyxin B nonapeptide [reference compound] | 0 | 20 | 113 | 0 | 133 | 154 | 0 | 0 | 113 | 177 | 0 | 0 | 113 | 113 | 154 |
| DA-cy[Dab-Dab-DPhe-Leu-Dab-Dab-Thr-] [NAB 736] | 0 | 113 | 133 | 0 | 95 | 154 | 0 | 0 | 38 | 79 | 0 | 0 | 38 | 38 | 38 |
| OA-Thr-DSer-cy[Dab-Dab-DPhe-Leu-Dab-Dab-Thr-] [NAB 739] | 133 | 177 | 201 | 113 | 177 | 314 | 133 | 177 | 38 | 79 | 113 | 177 | 38 | 64 | 64 |
| Deacylpolymyxin B [reference compound] | 57 | 79 | 127 |  |  |  | 57 | 113 |  |  |  |  |  |  |  |
| MHA-Abu-Thr-Abu-cy[Dab-Dab-DPhe-Leu-Dab-Dab-Thr-] [NAB 707] | 5 | 87 | 113 |  |  |  | 5 | 7 |  |  |  |  |  |  |  |
| OA-Thr-Dab-cy[Dab-Abu-DPhe-Leu-Dab-Dab-Thr-] [NAB 715] | 0 | 0 | 33 |  |  |  | 0 | 0 |  |  |  |  |  |  |  |
| OA-Thr-Abu-cy[Dab-Dab-DPhe-Leu-Dab-Abu-Thr-] [NAB 709] | 0 | 0 | 13 |  |  |  | 0 | 0 |  |  |  |  |  |  |  |
